Values joined by “and” are separate entries in the source; they are usually repeats but may differ in a detail not shown here. Equal values may be shown once. Toxic doses and inconclusive results are not listed.
Tested on: L1210 leukemia ip in BDF1 mice, survival T/C
Experiment: NCI In Vivo Anticancer Drug Screen. Data for tumor model L1210 Leukemia (intraperitoneal) in B6D2F1 (BDF1) mice
Settings: endpoint: mean survival time, higher = longer survival
Method in brief: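 In this screen, tumor-bearing mice given compound are compared to those given vehicle, and their survival values are reported as a treated-to-control quotient.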

[1] = dose: 100.0 mg/kg/injection, schedule: Q04DX002 (ip), vehicle: Klucel (hydroxypropylcellulose) (HPC)
[2] = dose: 200.0 mg/kg/injection, schedule: Q04DX002 (ip), vehicle: Klucel (hydroxypropylcellulose) (HPC)
[3] = dose: 200.0 mg/kg/injection, schedule: Q01DX001 (ip), vehicle: saline with Tween-80
[4] = dose: 400.0 mg/kg/injection, schedule: Q01DX001 (ip), vehicle: saline with Tween-80
[5] = dose: 100.0 mg/kg/injection, schedule: Q01DX001 (ip), vehicle: saline
[6] = dose: 200.0 mg/kg/injection, schedule: Q01DX001 (ip), vehicle: saline
[7] = dose: 400.0 mg/kg/injection, schedule: Q01DX001 (ip), vehicle: saline
[8] = dose: 200.0 mg/kg/injection, schedule: Q04DX003 (ip), vehicle: saline with Tween-80
[9] = dose: 100.0 mg/kg/injection, schedule: Q01DX009 (ip), vehicle: Klucel (hydroxypropylcellulose) (HPC)
[10] = dose: 100.0 mg/kg/injection, schedule: Q04DX003 (ip), vehicle: Klucel (hydroxypropylcellulose) (HPC)
[11] = dose: 200.0 mg/kg/injection, schedule: Q01DX009 (ip), vehicle: Klucel (hydroxypropylcellulose) (HPC)
[12] = dose: 200.0 mg/kg/injection, schedule: Q04DX003 (ip), vehicle: Klucel (hydroxypropylcellulose) (HPC)
[13] = dose: 400.0 mg/kg/injection, schedule: Q01DX009 (ip), vehicle: Klucel (hydroxypropylcellulose) (HPC)
[14] = dose: 400.0 mg/kg/injection, schedule: Q04DX003 (ip), vehicle: Klucel (hydroxypropylcellulose) (HPC)
[15] = dose: 100.0 mg/kg/injection, schedule: Q04DX003 (ip), vehicle: saline with Tween-80
[16] = dose: 400.0 mg/kg/injection, schedule: Q04DX003 (ip), vehicle: saline with Tween-80
[17] = dose: 100.0 mg/kg/injection, schedule: Q01DX009 (ip), vehicle: saline with Tween-80
[18] = dose: 100.0 mg/kg/injection, schedule: Q01DX001 (ip), vehicle: carboxymethylcellulose (CMC)
[19] = dose: 200.0 mg/kg/injection, schedule: Q01DX001 (ip), vehicle: carboxymethylcellulose (CMC)
[20] = dose: 400.0 mg/kg/injection, schedule: Q01DX001 (ip), vehicle: carboxymethylcellulose (CMC)
[21] = dose: 200.0 mg/kg/injection, schedule: Q01DX009 (ip), vehicle: saline with Tween-80
[22] = dose: 400.0 mg/kg/injection, schedule: Q01DX009 (ip), vehicle: saline with Tween-80

Cc1no[n+]([O-])c1C(N)=O
T/C [1]: 98 % of control | T/C [2]: 95 % of control | T/C (dose: 400.0 mg/kg/injection, schedule: Q04DX002 (ip), vehicle: Klucel (hydroxypropylcellulose) (HPC)): 98 % of control

C/C(=N\Nc1c(F)c(F)c(F)c(F)c1F)c1ccccc1
T/C (dose: 100.0 mg/kg/injection, schedule: Q01DX001 (ip), vehicle: saline with Tween-80): 105 % of control | T/C [3]: 96 % of control | T/C [4]: 100 % of control

Cc1cccc2ccc3cccc(C)c3c12
T/C [5]: 98 % of control | T/C [6]: 92 % of control | T/C [7]: 95 % of control

O=C(Nc1ccc(S(=O)(=O)F)cc1)c1cccc([N+](=O)[O-])c1
T/C [5]: 101 % of control | T/C [6]: 100 % of control | T/C [7]: 97 % of control

CS(=O)(=O)Nc1ccc(Nc2c3ccccc3nc3cc(Cl)ccc23)cc1
T/C (dose: 10.0 mg/kg/injection, schedule: Q01DX009 (sc), vehicle: saline): 118 % of control | T/C (dose: 20.0 mg/kg/injection, schedule: Q01DX009 (sc), vehicle: saline): 113 % of control | T/C (dose: 133.0 mg/kg/injection, schedule: Q04DX003 (ip), vehicle: saline with Tween-80): 176 % of control | T/C [8]: 103 % of control | T/C (dose: 300.0 mg/kg/injection, schedule: Q04DX003 (ip), vehicle: saline with Tween-80): 113 % of control

CCOc1ccc(C2CCCCCC2OS(C)(=O)=O)cc1 (stereo unspecified)
T/C (dose: 100.0 mg/kg/injection, schedule: Q01DX001 (ip), vehicle: Klucel (hydroxypropylcellulose) (HPC)): 105 % of control | T/C [9]: 95 % of control | T/C [10]: 97 % of control | T/C (dose: 200.0 mg/kg/injection, schedule: Q01DX001 (ip), vehicle: Klucel (hydroxypropylcellulose) (HPC)): 96 % of control | T/C [11]: 98 % of control | T/C [12]: 103 % of control | T/C (dose: 400.0 mg/kg/injection, schedule: Q01DX001 (ip), vehicle: Klucel (hydroxypropylcellulose) (HPC)): 100 % of control | T/C [13]: 93 % of control | T/C [14]: 101 % of control

CC1(C)N=C(N)Nc2nnc(-c3ccc(Cl)cc3)n21
T/C [15]: 97 % of control | T/C [8]: 97 % of control | T/C [16]: 94 % of control

Cc1c(C(=O)O)nnn1-c1ccc(Cl)cc1Cl
T/C [1]: 97 % of control | T/C [2]: 101 % of control

Cc1cc(=O)[nH]c2c(OCOc3cccc4c(C)cc(=O)[nH]c34)cccc12
T/C [10]: 97 % of control | T/C [12]: 100 % of control | T/C [14]: 94 % of control

CCOC(=O)C(Cc1ccc(O)c(N(CCO)CCO)c1)N1C(=O)c2ccccc2C1=O (stereo unspecified)
T/C [5]: 101 % of control | T/C [6]: 112 % of control

COc1ccc(OC)c(NC(=O)NNC(=O)c2ccccc2Cl)c1
T/C (dose: 25.0 mg/kg/injection, schedule: Q01DX009 (ip), vehicle: saline with Tween-80): 100 % of control | T/C (dose: 50.0 mg/kg/injection, schedule: Q01DX009 (ip), vehicle: saline with Tween-80): 91 % of control | T/C [17]: 94 % of control

CC/C=N\NC
T/C (dose: 5.0 mg/kg/injection, schedule: Q01DX001 (ip), vehicle: saline): 111 % of control | T/C (dose: 6.6 mg/kg/injection, schedule: Q01DX015 (ip), vehicle: saline): 94 % of control | T/C (dose: 10.0 mg/kg/injection, schedule: Q01DX001 (ip), vehicle: saline): 103 % of control | T/C (dose: 10.0 mg/kg/injection, schedule: Q01DX015 (ip), vehicle: saline): 94 % of control | T/C (dose: 15.0 mg/kg/injection, schedule: Q01DX015 (ip), vehicle: saline): 100 % of control | T/C (dose: 20.0 mg/kg/injection, schedule: Q01DX001 (ip), vehicle: saline): 112 % of control | T/C (dose: 22.5 mg/kg/injection, schedule: Q01DX015 (ip), vehicle: saline): 95 % of control | T/C (dose: 40.0 mg/kg/injection, schedule: Q01DX001 (ip), vehicle: saline): 120 % of control

S=c1cc(S)c(=S)[nH][nH]1
T/C (dose: 5.0 mg/kg/injection, schedule: Q01DX001 (ip), vehicle: other): 98 % of control | T/C (dose: 10.0 mg/kg/injection, schedule: Q01DX001 (ip), vehicle: other): 96 % of control | T/C (dose: 20.0 mg/kg/injection, schedule: Q01DX001 (ip), vehicle: other): 96 % of control

CSc1nc2c(=O)[nH][nH]c(=O)c2n1Cc1ccccc1
T/C [18]: 92 % of control | T/C [19]: 90 % of control | T/C [20]: 95 % of control

CCNC(=O)c1ccc(NC(=O)Nc2ccc(C3=NCCN3)cc2)cc1NC(=O)Nc1ccc(C2=NCCN2)cc1
T/C (dose: 37.5 mg/kg/injection, schedule: Q01DX015 (ip), vehicle: water): 198 % of control | T/C (dose: 46.0 mg/kg/injection, schedule: Q01DX001 (ip), vehicle: water): 123 % of control | T/C (dose: 50.0 mg/kg/injection, schedule: Q01DX015 (ip), vehicle: water): 163 % of control | T/C (dose: 62.5 mg/kg/injection, schedule: Q01DX Z (ip), vehicle: water): 116 % of control | T/C (dose: 93.0 mg/kg/injection, schedule: Q01DX001 (ip), vehicle: water): 166 % of control and 189 % of control | T/C (dose: 140.0 mg/kg/injection, schedule: Q01DX001 (ip), vehicle: water): 171 % of control and 176 % of control and 193 % of control

Cc1ccc(Cl)c(NC(=O)Nc2ccccc2Cl)c1
T/C [9]: 94 % of control and 90 % of control | T/C [11]: 93 % of control | T/C [13]: 88 % of control and 89 % of control

CCCCCS(=O)(=O)N1CCCCCC1
T/C (dose: 100.0 mg/kg/injection, schedule: Q04DX002 (ip), vehicle: other): 112 % of control | T/C (dose: 200.0 mg/kg/injection, schedule: Q04DX002 (ip), vehicle: other): 87 % of control | T/C (dose: 400.0 mg/kg/injection, schedule: Q04DX002 (ip), vehicle: other): 87 % of control

CC1=CC(=O)C2=C(C)CCC3C(C)C(=O)OC3C12 (stereo unspecified)
T/C [3]: 98 % of control | T/C [4]: 162 % of control

COc1ccc2c(c1OC)C(=O)O[C@@H]2[C@H]1c2c(cc3c(c2OC)OCO3)CCN1C
T/C (dose: 31.3 mg/kg/injection, schedule: Q01DX009 (ip), vehicle: saline): 95 % of control and 100 % of control (2×) | T/C (dose: 50.0 mg/kg/injection, schedule: Q01DX001 (ip), vehicle: saline): 96 % of control | T/C (dose: 62.5 mg/kg/injection, schedule: Q01DX009 (ip), vehicle: saline): 94 % of control and 100 % of control (2×) | T/C [5]: 102 % of control | T/C (dose: 125.0 mg/kg/injection, schedule: Q01DX009 (ip), vehicle: saline): 96 % of control and 97 % of control and 91 % of control | T/C [6]: 107 % of control | T/C (dose: 250.0 mg/kg/injection, schedule: Q01DX009 (ip), vehicle: saline): 102 % of control and 104 % of control and 91 % of control | T/C [7]: 111 % of control

CC(=O)Oc1cc(C=O)cc(OC(C)=O)c1OC(C)=O
T/C [17]: 106 % of control | T/C [15]: 106 % of control | T/C [21]: 118 % of control | T/C [8]: 121 % of control | T/C [22]: 90 % of control | T/C [16]: 108 % of control

Cc1cc(Cl)cc([N+](=O)[O-])c1
T/C [17]: 96 % of control | T/C [21]: 96 % of control | T/C [22]: 95 % of control

Cc1c[n+](CC(=O)c2ccccc2)cn1CC(=O)c1ccccc1
T/C (dose: 25.0 mg/kg/injection, schedule: Q01DX009 (ip), vehicle: Klucel (hydroxypropylcellulose) (HPC)): 102 % of control and 105 % of control | T/C (dose: 25.0 mg/kg/injection, schedule: Q04DX002 (ip), vehicle: Klucel (hydroxypropylcellulose) (HPC)): 95 % of control and 102 % of control | T/C (dose: 50.0 mg/kg/injection, schedule: Q01DX009 (ip), vehicle: Klucel (hydroxypropylcellulose) (HPC)): 100 % of control and 116 % of control | T/C (dose: 50.0 mg/kg/injection, schedule: Q04DX002 (ip), vehicle: Klucel (hydroxypropylcellulose) (HPC)): 95 % of control and 100 % of control | T/C [9]: 102 % of control and 108 % of control

CCOC(=O)C1(C(=O)OCC)C=C(CC)C(=O)OC1
T/C (dose: 50.0 mg/kg/injection, schedule: Q01DX001 (ip), vehicle: carboxymethylcellulose (CMC)): 111 % of control | T/C [18]: 100 % of control | T/C [19]: 113 % of control | T/C [20]: 105 % of control

C1=C(c2ccccc2)c2ccccc2C1(c1ccccc1)c1ccccc1
T/C [15]: 97 % of control | T/C [8]: 94 % of control | T/C [16]: 94 % of control
